What was measured:
human CD73 = target: T1, human CD73 (Homo sapiens, UniProt P21589); experiment: Inhibitor activity against CD73 in cell based assay (CD73 expressing CHO-K1 cells); conditions: CHO-K1 cells expressing human CD73, 150 μM AMP, 4 hours of incubation; read-out: CHO-K1 CELL_VARIANT: CD73 IC50
T1 construct: expressed in transfected cells
T1 sequence (P21589 27-549): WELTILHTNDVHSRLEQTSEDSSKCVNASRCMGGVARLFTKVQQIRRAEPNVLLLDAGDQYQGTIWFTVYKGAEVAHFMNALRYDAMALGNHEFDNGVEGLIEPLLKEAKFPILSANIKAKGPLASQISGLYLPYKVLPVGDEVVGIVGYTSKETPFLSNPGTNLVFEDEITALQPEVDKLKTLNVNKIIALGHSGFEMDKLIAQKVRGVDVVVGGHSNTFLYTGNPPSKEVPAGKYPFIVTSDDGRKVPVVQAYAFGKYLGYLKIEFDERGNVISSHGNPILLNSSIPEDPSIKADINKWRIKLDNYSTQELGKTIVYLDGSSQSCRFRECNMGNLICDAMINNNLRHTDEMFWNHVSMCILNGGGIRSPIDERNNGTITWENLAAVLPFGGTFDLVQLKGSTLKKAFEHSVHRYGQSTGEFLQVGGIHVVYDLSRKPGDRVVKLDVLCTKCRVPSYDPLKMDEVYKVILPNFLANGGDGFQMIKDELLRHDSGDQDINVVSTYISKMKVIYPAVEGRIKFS
In short: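 AMP (150 μM) was added alongside 8 titrated compound doses (maximum 10 μM, 1:3 steps) to CHO-K1 cells stably expressing human CD73. After 4 h, supernatant AMP was measured indirectly with CellTiter-Glo 2.0 plus 1 μM ATP (30 min, RT). % inhibition versus high and low controls was fitted nonlinearly for IC50.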

[1] = target: T2, Human CD73 (amino acid residues 27-549) (Homo sapiens, UniProt P21589); experiment: CD73 enzymatic assay (luciferase-based indirect assay, CellTiter-Glo); assay type: biochemical; conditions: 0.4 nM CD73, 150 μM AMP, 1 hour at room temperature
T2 construct: Human CD73 (amino acid residues 27-549); His tag (N); made in house; host or cells: E. coli
T2 sequence (P21589 27-549): T1 sequence (P21589 27-549)
In short: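 Luciferase-coupled readout: AMP left after CD73 turnover suppresses CellTiter-Glo signal (1 μM ATP final, 30 min RT). Reaction beforehand: 150 μM AMP, 0.4 nM E. coli-made His-tagged CD73 residues 27-549, test compound, HEPES pH 7.4 with Tween-20, 1 h RT. % inhibition fitted nonlinearly for IC50.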

Compound	IC50 (human CD73) [µM]	IC50 [1] [µM]
Cc1nn(CC2(C)COC2)c(C)c1-c1ccnc(O[C@@H]2CCN(c3cn[nH]c(=O)c3Cl)C2)c1 [P-0095, (R)-4-chloro-5-(3-((4-(3,5-dimethyl-1-((3-methyloxetan-3-yl)methyl)-1H-pyrazol-4-yl)pyridin-2-yl)oxy)pyrrolidin-1-yl)pyridazin-3(2H)-one]	0.001 to 10	0.001 to 10
O=c1[nH]ncc(N2CC[C@@H](Oc3cc(C4CCNC4)ccn3)C2)c1Cl (stereo partly drawn) [P-0018, 4-chloro-5-((3R)-3-((4-(pyrrolidin-3-yl)pyridin-2-yl)oxy)pyrrolidin-1-yl)pyridazin-3(2H)-one]	0.001 to 10	0.001 to 10
NC1CC=C(c2ccnc(O[C@@H]3CCN(c4cn[nH]c(=O)c4Cl)C3)c2)CC1 (stereo partly drawn) [P-0067, 5-((3R)-3-((4-(4-aminocyclohex-1-en-1-yl)pyridin-2-yl)oxy)pyrrolidin-1-yl)-4-chloropyridazin-3(2H)-one]	0.001 to 10	0.001 to 10
N#CCC1CCN(c2ccnc(O[C@@H]3CCN(c4cn[nH]c(=O)c4Cl)C3)c2)CC1 [P-0030, (R)-2-(1-(2-((1-(5-chloro-6-oxo-1,6-dihydropyridazin-4-yl)pyrrolidin-3-yl)oxy)pyridin-4-yl)piperidin-4-yl)acetonitrile]	0.001 to 10	0.001 to 10
Cc1nn(CC2CCO2)c(C)c1-c1ccnc(O[C@@H]2CCN(c3cn[nH]c(=O)c3Cl)C2)c1 (stereo partly drawn) [P-0086, 4-chloro-5-((3R)-3-((4-(3,5-dimethyl-1-(oxetan-2-ylmethyl)-1H-pyrazol-4-yl)pyridin-2-yl)oxy)pyrrolidin-1-yl)pyridazin-3(2H)-one]	0.001 to 10	0.001 to 10
CC(=O)N1CCN(c2ccnc(O[C@@H]3CCN(c4cn[nH]c(=O)c4Cl)C3)c2)[C@@H](C)C1 [P-0103, 5-((R)-3-((4-((S)-4-acetyl-2-methylpiperazin-1-yl)pyridin-2-yl)oxy)pyrrolidin-1-yl)-4-chloropyridazin-3(2H)-one]	10 to 100	0.001 to 10
COc1ccc2c(c1)cc(-c1ccnc(O[C@@H]3CCN(c4cnn(CCO)c(=O)c4Cl)C3)c1)n2C [P-0106, (R)-4-chloro-2-(2-hydroxyethyl)-5-(3-((4-(5-methoxy-1-methyl-1H-indol-2-yl)pyridin-2-yl)oxy)pyrrolidin-1-yl)pyridazin-3(2H)-one]	0.001 to 10	0.001 to 10
O=c1[nH]ncc(N2CC[C@@H](Oc3cc(N4[C@@H]5CC[C@H]4CC(F)(F)C5)ccn3)C2)c1Cl [P-0111, 4-chloro-5-((R)-3-((4-((1R,5S)-3,3-difluoro-8-azabicyclo[3.2.1]octan-8-yl)pyridin-2-yl)oxy)pyrrolidin-1-yl)pyridazin-3(2H)-one]	10 to 100	0.001 to 10
O=c1[nH]ncc(N2CC[C@@H](Oc3cc(-c4ccc(OC(F)(F)F)cc4)ccn3)C2)c1Cl [P-0237, (R)-4-chloro-5-(3-((4-(4-(trifluoromethoxy)phenyl)pyridin-2-yl)oxy)pyrrolidin-1-yl)pyridazin-3(2H)-one]	0.001 to 10	0.001 to 10
COC(=O)Cc1ccc(-c2ccnc(O[C@@H]3CCN(c4cn[nH]c(=O)c4Cl)C3)c2)c(F)c1 [P-0218, methyl (R)-2-(4-(2-((1-(5-chloro-6-oxo-1,6-dihydropyridazin-4-yl)pyrrolidin-3-yl)oxy)pyridin-4-yl)-3-fluorophenyl)acetate]	0.001 to 10	0.001 to 10
Cc1noc(C)c1-c1ccnc(O[C@@H]2CCN(c3cn[nH]c(=O)c3C#N)C2)c1 [P-0063, (R)-5-(3-((4-(3,5-dimethylisoxazol-4-yl)pyridin-2-yl)oxy)pyrrolidin-1-yl)-3-oxo-2,3-dihydropyridazine-4-carbonitrile]	0.001 to 10	0.001 to 10
O=c1[nH]ncc(N2CC[C@@H](Oc3cc(N4CCC5(CC4)COC5)ccn3)C2)c1Cl [P-0082, (R)-5-(3-((4-(2-oxa-7-azaspiro[3.5]nonan-7-yl)pyridin-2-yl)oxy)pyrrolidin-1-yl)-4-chloropyridazin-3(2H)-one]	0.001 to 10	0.001 to 10
CCCNS(=O)(=O)c1cc(C)c(-c2ccnc(O[C@@H]3CCN(c4cn[nH]c(=O)c4Cl)C3)c2)c(F)c1 [P-0225, (R)-4-(2-((1-(5-chloro-6-oxo-1,6-dihydropyridazin-4-yl)pyrrolidin-3-yl)oxy)pyridin-4-yl)-3-fluoro-5-methyl-N-propylbenzenesulfonamide]	0.001 to 10	0.001 to 10
Cc1noc(C)c1-c1ccnc(O[C@@H]2CCN(c3cnn(CCO)c(=O)c3Cl)C2)c1 [P-0176, (R)-4-chloro-5-(3-((4-(3,5-dimethylisoxazol-4-yl)pyridin-2-yl)oxy)pyrrolidin-1-yl)-2-(2-hydroxyethyl)pyridazin-3(2H)-one]	0.001 to 10	0.001 to 10
O=c1[nH]ncc(N2CC[C@@H](Oc3cncc(O[C@@H]4CCN(c5cn[nH]c(=O)c5Cl)C4)c3)C2)c1Cl [P-0163, 5,5′-((3R,3′R)-(pyridine-3,5-diylbis(oxy))bis(pyrrolidine-3,1-diyl))bis(4-chloropyridazin-3(2H)-one)]	0.001 to 10	0.001 to 10
Cc1noc(C)c1-c1cc(O[C@@H]2CCN(c3cnn(CCN)c(=O)c3Cl)C2)ncn1 [P-0141, (R)-2-(2-aminoethyl)-4-chloro-5-(3-((6-(3,5-dimethylisoxazol-4-yl)pyrimidin-4-yl)oxy)pyrrolidin-1-yl)pyridazin-3(2H)-one]	0.001 to 10	0.001 to 10
CC1(C)CNCCN1c1ccnc(O[C@@H]2CCN(c3cn[nH]c(=O)c3Cl)C2)c1 [P-0080, (R)-4-chloro-5-(3-((4-(2,2-dimethylpiperazin-1-yl)pyridin-2-yl)oxy)pyrrolidin-1-yl)pyridazin-3(2H)-one]	10 to 100	0.001 to 10
Cc1nn(CC2CC(F)(F)C2)c(C)c1-c1cc(F)nc(O[C@@H]2CCN(c3cn[nH]c(=O)c3Cl)C2)c1 [P-0187, (R)-4-chloro-5-(3-((4-(1-((3,3-difluorocyclobutyl)methyl)-3,5-dimethyl-1H-pyrazol-4-yl)-6-fluoropyridin-2-yl)oxy)pyrrolidin-1-yl)pyridazin-3(2H)-one]	0.001 to 10	0.001 to 10
CCCCNS(=O)(=O)c1ccc(-c2ccnc(O[C@@H]3CCN(c4cn[nH]c(=O)c4Cl)C3)c2)cc1 [P-0242, (R)-N-butyl-4-(2-((1-(5-chloro-6-oxo-1,6-dihydropyridazin-4-yl)pyrrolidin-3-yl)oxy)pyridin-4-yl)benzenesulfonamide]	0.001 to 10	0.001 to 10
Cc1nn(CCC#N)c(C)c1-c1ccnc(O[C@@H]2CCN(c3cn[nH]c(=O)c3Cl)C2)c1 [P-0044, (R)-3-(4-(2-((1-(5-chloro-6-oxo-1,6-dihydropyridazin-4-yl)pyrrolidin-3-yl)oxy)pyridin-4-yl)-3,5-dimethyl-1H-pyrazol-1-yl)propanenitrile]	0.001 to 10	0.001 to 10
Cc1nnn(C)c1-c1cc(F)nc(O[C@@H]2CCN(c3cn[nH]c(=O)c3Cl)C2)c1 [P-0172, (R)-4-chloro-5-(3-((4-(1,4-dimethyl-1H-1,2,3-triazol-5-yl)-6-fluoropyridin-2-yl)oxy)pyrrolidin-1-yl)pyridazin-3(2H)-one]	0.001 to 10	0.001 to 10
Cc1nn(C)c(C)c1-c1cccc(O[C@@H]2CCN(c3cn[nH]c(=O)c3Cl)C2)c1 [P-0198, (R)-4-chloro-5-(3-(3-(1,3,5-trimethyl-1H-pyrazol-4-yl)phenoxy)pyrrolidin-1-yl)pyridazin-3(2H)-one]	0.001 to 10	0.001 to 10

Source: patent US12202818B2, “Compounds and methods for CD73 modulation and indications therefor” (Opna Bio SA, priority 2020, dated 2025)
